For 25 compounds, inhibition results are on record in US8455475B2 (Gruenenthal GmbH, priority 2009, dated 2013).

This assay addresses T1, rat B1R (bradykinin receptor 1) (Rattus norvegicus, UniProt P97583).
T1 construct: expressed in transfected cells; host or cells: CHO K1 cells
T1 sequence (P97583 1-337): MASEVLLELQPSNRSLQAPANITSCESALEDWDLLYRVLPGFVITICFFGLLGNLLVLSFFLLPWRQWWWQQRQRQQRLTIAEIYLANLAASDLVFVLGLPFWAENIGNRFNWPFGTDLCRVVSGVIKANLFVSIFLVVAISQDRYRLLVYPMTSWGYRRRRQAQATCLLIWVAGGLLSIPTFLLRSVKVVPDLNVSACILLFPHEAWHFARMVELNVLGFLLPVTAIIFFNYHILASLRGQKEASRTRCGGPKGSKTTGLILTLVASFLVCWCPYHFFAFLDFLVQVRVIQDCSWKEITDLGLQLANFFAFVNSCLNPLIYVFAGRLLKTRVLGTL
Description: FLIPR Ca2+ assay (Fluo-4) on CHO K1 cells stably transfected with the B1R gene of the rat (rB1R cells): % inhibition at 10 μM / IC50, agonist Des-Arg9-bradykinin. In kind it is cell-based. As to conditions: CHO-K1, rat B1R. Summed up: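 Stably transfected CHO K1 cells loaded with Fluo-4 and read on FLIPR (λex 488, λem 540 nm; peak fluorescence). Test substance (10 μM) added first, then after 10–20 min the agonist at EC80; % inhibition versus maximum achievable inhibition. IC50 from several concentrations, n=2–3, N≥2.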
The term inhibition denotes the drop in the measured response relative to a control, in per cent. With `N#Cc1cccc(CN2CCC3(CC2)CCN(C(=O)c2ccc4c(c2)C(NC(=O)c2ccccc2Cl)CC4)CC3)c1` (stereo not shown) [IND_CC-534, 2-Chloro-N-[6-[9-[(3-cyano-phenyl)-methyl]-3,9-diazaspiro[5.5]undecane-3-carbonyl]-2,3-dihydro-1H-inden-1-yl]-benzamide], the inhibition at 10 µM worked out at 102%. Turning to `COc1ccc(C(=O)NC2CCc3ccc(C(=O)N4CCC5(CC4)CCN(c4ccncc4)C5)cc32)c(F)c1` (stereo not shown) [IND_CC-298, 2-Fluoro-4-methoxy-N-[6-(2-pyridin-4-yl-2,8-diazaspiro[4.5]decane-8-carbonyl)-2,3-dihydro-1H-inden-1-yl]-benzamide], the inhibition at 10 µM is 74%. The same measure for `O=C(CCC1CCCC1)NC1CCc2ccc(C(=O)N3CCC4(CCN(c5ccncc5)CC4)C3)cc21` (stereo not shown) [IND_CC-413, 3-Cyclopentyl-N-[6-(8-pyridin-4-yl-2,8-diazaspiro[4.5]decane-2-carbonyl)-2,3-dihydro-1H-inden-1-yl]-propionamide]: 103%; for `O=C(NC1CCc2ccc(C(=O)N3CCC4(CCN(CCCc5cccc(F)c5)CC4)C3)cc21)c1c(F)cccc1Cl` (stereo not shown) [IND_CC-781, 2-Chloro-6-fluoro-N-[6-[8-[3-(3-fluorophenyl)-propyl]-2,8-diazaspiro[4.5]decane-2-carbonyl]-2,3-dihydro-1H-inden-1-yl]-benzamide]: 106%.

On to `O=C(NC1CCc2ccc(C(=O)N3CCC4(CCN(Cc5c[nH]cn5)CC4)CC3)cc21)c1cc(C(F)(F)F)ccc1Cl` (stereo not shown) [IND_CC-639, 2-Chloro-N-[6-[9-(1H-imidazol-4-yl-methyl)-3,9-diazaspiro[5.5]undecane-3-carbonyl]-2,3-dihydro-1H-inden-1-yl]-5-(trifluoromethyl)-benzamide], for which the inhibition at 10 µM amounted to 78%. The same measure for `O=C(NC1CCc2ccc(C(=O)N3CCC4(CC3)CCN(c3ccncc3)CC4)cc21)c1cnccn1` (stereo not shown) [IND_CC-397, N-[6-(9-Pyridin-4-yl-3,9-diazaspiro[5.5]undecane-3-carbonyl)-2,3-dihydro-1H-inden-1-yl]-pyrazine-2-carboxylic acid amide]: 68%. Turning to `Cc1noc(C)c1CN1CCC2(CC1)CCN(C(=O)c1ccc3c(c1)C(NC(=O)c1ccccc1Cl)CC3)C2` (stereo not shown) [IND_CC-560, 2-Chloro-N-[6-[8-[(3,5-dimethyl-isoxazol-4-yl)-methyl]-2,8-diazaspiro[4.5]decane-2-carbonyl]-2,3-dihydro-1H-inden-1-yl]-benzamide], the inhibition at 10 µM amounted to 95%. Consider `O=C(NC1CCc2ccc(C(=O)N3CCC4(CCN(Cc5ccc(F)c(F)c5)CC4)CC3)cc21)c1cc(Cl)ccc1F` (stereo not shown) [IND_CC-628, 5-Chloro-N-[6-[9-[(3,4-difluoro-phenyl)-methyl]-3,9-diazaspiro[5.5]undecane-3-carbonyl]-2,3-dihydro-1H-inden-1-yl]-2-fluoro-benzamide], for which the inhibition at 10 µM came to 63%. Then `Cn1nc(C(C)(C)C)cc1C(=O)N1CCC2(CCN(C(=O)c3ccc4c(c3)C(N(C(=O)c3ccccc3Cl)C3CC3)CC4)C2)CC1` (stereo not shown) [IND_CC-607, N-[6-[8-(5-tert-Butyl-2-methyl-2H-pyrazole-3-carbonyl)-2,8-diazaspiro[4.5]decane-2-carbonyl]-2,3-dihydro-1H-inden-1-yl]-2-chloro-N-cyclopropyl-benzamide], with 67%. Then `O=C(NCc1ccccc1)N1CCC2(CC1)CCN(C(=O)c1ccc3c(c1)C(N(C(=O)c1ccccc1Cl)C1CC1)CC3)C2` (stereo not shown) [IND_CC-716, N-Benzyl-2-[3-[(2-chloro-benzoyl)-cyclopropyl-amino]-2,3-dihydro-1H-indene-5-carbonyl]-2,8-diazaspiro[4.5]decane-8-carboxylic acid amide], with 80%. Then `O=C(NC1CCc2ccc(C(=O)N3CCC4(CCN(Cc5cccnc5)CC4)CC3)cc21)c1cc(C(F)(F)F)ccc1Cl` (stereo not shown) [IND_CC-642, 2-Chloro-N-[6-[9-(pyridin-3-yl-methyl)-3,9-diazaspiro[5.5]undecane-3-carbonyl]-2,3-dihydro-1H-inden-1-yl]-5-(trifluoromethyl)-benzamide], with 77%. As for `O=C(NC1CCc2ccc(C(=O)N3CCC4(CCN(Cc5ccc[nH]5)CC4)CC3)cc21)c1cc(C(F)(F)F)ccc1Cl` (stereo not shown) [IND_CC-638, 2-Chloro-N-[6-[9-(1H-pyrrol-2-yl-methyl)-3,9-diazaspiro[5.5]undecane-3-carbonyl]-2,3-dihydro-1H-inden-1-yl]-5-(trifluoromethyl)-benzamide], the inhibition at 10 µM was 80%.

Turning to `O=C(NC1CCc2ccc(C(=O)N3CCC4(CCN(Cc5ccc(F)c(F)c5)CC4)CC3)cc21)c1c(F)cccc1Cl` (stereo not shown) [IND_CC-789, 2-Chloro-N-[6-[9-[(3,4-difluoro-phenyl)-methyl]-3,9-diazaspiro[5.5]undecane-3-carbonyl]-2,3-dihydro-1H-inden-1-yl]-6-fluoro-benzamide], the inhibition at 10 µM was 98%. Then `O=C(c1ccc2c(c1)C(NS(=O)(=O)c1ccccc1Cl)CC2)N1CCC2(CCN(c3ccncc3)CC2)C1` (stereo not shown) [Ind_CC-089, 2-chloro-N-[6-(8-pyridin-4-yl-3,8-diazaspiro[4.5]decane-3-carbonyl)-2,3-dihydro-1H-inden-1-yl]-benzenesulfonic acid amide], with 100%; and `Cc1nc[nH]c1CN1CCC2(CC1)CCN(C(=O)c1ccc3c(c1)C(NC(=O)c1cc(C(F)(F)F)ccc1Cl)CC3)CC2` (stereo not shown) [IND_CC-661, 2-Chloro-N-[6-[9-[(5-methyl-3H-imidazol-4-yl)-methyl]-3,9-diazaspiro[5.5]-undecane-3-carbonyl]-2,3-dihydro-1H-inden-1-yl]-5-(trifluoromethyl)benzamide], with 95%. In the case of `O=C(NC1CCc2ccc(C(=O)N3CCC4(CCN(Cc5csnn5)CC4)C3)cc21)c1cc(C(F)(F)F)ccc1Cl` (stereo not shown) [IND_CC-656, 2-Chloro-N-[6-[8-([1,2,3]thiadiazol-4-yl-methyl)-2,8-diazaspiro[4.5]decane-2-carbonyl]-2,3-dihydro-1H-inden-1-yl]-5-(trifluoromethyl)-benzamide], the inhibition at 10 µM worked out at 51%. Then `N#Cc1ccccc1C(=O)NC1CCc2ccc(C(=O)N3CCC4(CC3)CCN(c3ccc(C(F)(F)F)cc3)CC4)cc21` (stereo not shown) [IND_CC-235, 2-Cyano-N-[6-[9-[4-(trifluoromethyl)-phenyl]-3,9-diazaspiro[5.5]undecane-3-carbonyl]-2,3-dihydro-1H-inden-1-yl]-benzamide], with 89%; and `Cc1nc(CN2CCC3(CC2)CCN(C(=O)c2ccc4c(c2)C(NC(=O)c2c(F)cccc2Cl)CC4)C3)c[nH]1` (stereo not shown) [IND_CC-736, 2-Chloro-6-fluoro-N-[6-[8-[(2-methyl-1H-imidazol-4-yl)-methyl]-2,8-diazaspiro[4.5]decane-2-carbonyl]-2,3-dihydro-1H-inden-1-yl]-benzamide], with 93%; and `O=C(NC1CCc2ccc(C(=O)N3CCC4(CCN(CCCc5cccc(F)c5)CC4)CC3)cc21)c1cccc(Cl)c1Cl` (stereo not shown) [IND_CC-759, 2,3-Dichloro-N-[6-[9-[3-(3-fluorophenyl)-propyl]-3,9-diazaspiro[5.5]undecane-3-carbonyl]-2,3-dihydro-1H-inden-1-yl]-benzamide], with 78%. On to `O=C(NC1CCc2ccc(C(=O)N3CCC4(CCN(CCCc5ccc(F)cc5)CC4)CC3)cc21)c1cc(C(F)(F)F)ccc1Cl` (stereo not shown) [IND_CC-703, 2-Chloro-N-[6-[9-[3-(4-fluorophenyl)-propyl]-3,9-diazaspiro[5.5]undecane-3-carbonyl]-2,3-dihydro-1H-inden-1-yl]-5-(trifluoromethyl)-benzamide], for which the inhibition at 10 µM turned out to be 70%.

As to `COc1ccc(CN2CCC3(CC2)CCN(C(=O)c2ccc4c(c2)C(NC(=O)c2cc(Cl)ccc2F)CC4)CC3)cc1F` (stereo not shown) [IND_CC-630, 5-Chloro-2-fluoro-N-[6-[9-[(3-fluoro-4-methoxy-phenyl)-methyl]-3,9-diazaspiro[5.5]undecane-3-carbonyl]-2,3-dihydro-1H-inden-1-yl]-benzamide], the inhibition at 10 µM is 53%. As to `O=C(NCc1ccc(Cl)c(Cl)c1)N1CCC2(CC1)CCN(C(=O)c1ccc3c(c1)C(N(C(=O)c1ccccc1Cl)C1CC1)CC3)C2` (stereo not shown) [IND_CC-721, 2-[3-[(2-Chloro-benzoyl)-cyclopropyl-amino]-2,3-dihydro-1H-indene-5-carbonyl]-N-[(3,4-dichlorophenyl)-methyl]-2,8-diazaspiro[4.5]decane-8-carboxylic acid amide], the inhibition at 10 µM amounted to 70%. As for `O=C(NC1CCc2ccc(C(=O)N3CCC4(CCN(c5ccncc5)CC4)C3)cc21)c1ccc(C(F)(F)F)cn1` (stereo not shown) [IND_CC-396, N-[6-(8-Pyridin-4-yl-2,8-diazaspiro[4.5]decane-2-carbonyl)-2,3-dihydro-1H-inden-1-yl]-5-(trifluoromethyl)-pyridine-2-carboxylic acid amide], the inhibition at 10 µM was 81%. In the case of `O=C(NC1CCc2ccc(C(=O)N3CCC4(CCN(c5ccncc5)CC4)C3)cc21)c1c(F)cccc1C(F)(F)F` (stereo not shown) [IND_CC-378, 2-Fluoro-N-[6-(8-pyridin-4-yl-2,8-diazaspiro[4.5]decane-2-carbonyl)-2,3-dihydro-1H-inden-1-yl]-6-(trifluoromethyl)-benzamide], the inhibition at 10 µM worked out at 104%. Turning to `CN(C1CCc2ccc(C(=O)N3CCC4(CC3)CCN(c3ccncc3)CC4)cc21)S(=O)(=O)Cc1cccc(C(F)(F)F)c1` (stereo not shown) [IND_CC-390, N-Methyl-N-[6-(9-pyridin-4-yl-3,9-diazaspiro[5.5]undecane-3-carbonyl)-2,3-dihydro-1H-inden-1-yl]-1-[3-(trifluoromethyl)phenyl]-methanesulfonic acid amide], the inhibition at 10 µM came out at 100%.
